Measurements published in the NIST ThermoML archive (doi:10.1021/je100610v).

Assay: molar heat capacity at constant pressure; xn = mol fraction of the nth substance listed
Conditions: 101 kPa, Liquid

ClCCCCCCCl [1,6-dichlorohexane] + CCCCCCC
molar heat capacity at constant pressure [J/K/mol]
Conditions | x1 = 0.1033 | x1 = 0.2005 | x1 = 0.3004 | x1 = 0.397 | x1 = 0.5025 | x1 = 0.5978 | x1 = 0.7012 | x1 = 0.7975 | x1 = 0.8993 | x1 = 1
293.15 K | 224.18 | 225.58 | 226.93 | 228.73 | 230.53 | 232.22 | 233.79 | 235.58 | 237.46 | 239.21
294.15 K | 224.47 | 225.71 | 227.22 | 229.08 | 230.89 | 232.55 | 234 | 235.86 | 237.73 | 239.5
295.15 K | 224.85 | 226.27 | 227.61 | 229.51 | 231.34 | 232.94 | 234.33 | 236.23 | 238.1 | 239.69
296.15 K | 225.28 | 226.73 | 227.98 | 229.89 | 231.84 | 233.25 | 234.73 | 236.51 | 238.39 | 240.02
297.15 K | 225.7 | 227.04 | 228.31 | 230.27 | 231.98 | 233.48 | 235.05 | 236.81 | 238.57 | 240.35
298.15 K | 226.02 | 227.35 | 228.65 | 230.41 | 232.13 | 233.77 | 235.36 | 237.1 | 238.92 | 240.64
299.15 K | 226.42 | 227.84 | 228.96 | 230.75 | 232.24 | 234 | 235.65 | 237.33 | 239.06 | 240.85
300.15 K | 226.82 | 228.08 | 229.21 | 231.06 | 232.49 | 234.22 | 236.05 | 237.68 | 239.39 | 241.15
301.15 K | 227.16 | 228.49 | 229.61 | 231.57 | 232.94 | 234.6 | 236.34 | 238.04 | 239.79 | 241.46
302.15 K | 227.48 | 228.83 | 230 | 231.8 | 233.35 | 234.96 | 236.63 | 238.29 | 240.08 | 241.8
303.15 K | 227.86 | 229.13 | 230.36 | 232.08 | 233.73 | – | – | – | – | –
